In brackets after ≈: the same amount, converted by molar mass. Like-named read-outs stand apart in the source and are kept apart here. Starred links: 1 amine or outer side, 2 acyl side, 3 side chain; linkers in the order of their positions; H or OH if unused. Positions of bridges follow the written chain, without caps; N, C: chain ends. Non-standard residues stand in square brackets, D forms with d. Residues, ends and D or L forms follow the SMILES beside them. *: point of attachment. C20 diacid = O=C(O)CCCCCCCCCCCCCCCCCCC(=O)*; C18 diacid = O=C(O)CCCCCCCCCCCCCCCCC(=O)*; γGlu = O=C(O)[C@H](CCC(=O)[*:2])N[*:1]; Orn = NCCC[C@H](N)C(=O)O; AEEA = NCCOCCOCC(=O)O
Experiments:
food intake = experiment: Assay (I) efficacy testing on appetite (food intake), ad libitum fed rat model; assay type: in vivo, Sprague Dawley (SD) rats; conditions: 3 nmol/kg
In short: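 Food consumption was logged per animal every hour up to 7 h and again at 24 h (occasionally 48 h) after a single 0.01–3 mg/kg dose, given sc, po or ip at dark-phase onset. Ad libitum fed SD rats, 200–250 g, kept on inverted light/dark cycle; vehicle group included, outliers removed by Grubbs test.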

[1] = Assay (IV) determination of solubility; assay type: physicochemical
In short: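 Stock ~500 nmol/ml in water; 1:1 with 100 mM buffer, pH 3.0–8.0 (glycylglycine ≤5.0, bistrispropane ≥6.0); 18 h RT; spin; HPLC quantitation of soluble polypeptide.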

[2] = bistrispropane buffer, pH 6, pH 6.0, read-out: Solubility pH 6.0
[3] = bistrispropane buffer, pH 6.5, pH 6.5, read-out: Solubility pH 6.5
[4] = bistrispropane buffer, pH 7, pH 7.0, 18 hours at room temperature, Table 3, read-out: Solubility pH 7.0
[5] = bistrispropane buffer, pH 7, pH 7.0, Table 8, read-out: Solubility pH 7.0
[6] = bistrispropane buffer, pH 7, pH 7.0, read-out: Solubility pH 7.0
[7] = bistrispropane buffer, pH 7.5, pH 7.5, read-out: Solubility pH 7.5
[8] = bistrispropane buffer, pH 8, pH 8.0, read-out: Solubility pH 8.0
[9] = glycylglycine buffer, pH 3, pH 3.0, read-out: Solubility pH 3.0
[10] = glycylglycine buffer, pH 4, pH 4.0, 18 hours at room temperature, Table 2, read-out: Solubility pH 4.0
[11] = glycylglycine buffer, pH 4, pH 4.0, read-out: Solubility pH 4.0
[12] = glycylglycine buffer, pH 5, pH 5.0, read-out: Solubility pH 5.0

| Compound | Food intake reduction 0-24 h 3 nmol/kg (%) (food intake) | Food intake reduction 24-48 h 3 nmol/kg (%) (food intake) | solubility at 18 h [1, 2] [µM] | solubility at 18 h [1, 3] [µM] | solubility at 18 h [1, 4] [µM] | solubility at 18 h [1, 5] [µM] | solubility at 18 h [1, 6] [µM] | solubility at 18 h [1, 7] [µM] | solubility at 18 h [1, 8] [µM] | solubility at 18 h [1, 9] [µM] | solubility at 18 h [1, 10] [µM] | solubility at 18 h [1, 11] [µM] | solubility at 18 h [1, 12] [µM] | solubility at 18 h ([1]; bistrispropane buffer, pH 7, pH 7.0, Table 9, read-out: Solubility pH 7.0) [µM] | solubility at 18 h ([1]; bistrispropane buffer, pH 7.5, pH 7.5, Table 9, read-out: Solubility pH 7.5) [µM] |
| --- | --- | --- | --- | --- | --- | --- | --- | --- | --- | --- | --- | --- | --- | --- | --- |
| CC[C@H](C)[C@H](NC(=O)[C@@H]1CCCN1C(=O)CNC(=O)[C@H](Cc1ccccc1)NC(=O)[C@H](CC(N)=O)NC(=O)[C@H](CC(N)=O)NC(=O)[C@H](CO)NC(=O)[C@H](CO)NC(=O)[C@H](Cc1c[nH]cn1)NC(=O)[C@H](Cc1c[nH]cn1)NC(=O)[C@H](CC(C)C)NC(=O)[C@H](Cc1ccccc1)NC(=O)[C@H](CCC(=O)O)NC(=O)[C@H](C)NC(=O)[C@H](CC(C)C)NC(=O)[C@H](CCCNC(=N)N)NC(=O)[C@H](CCC(N)=O)NC(=O)[C@@H](NC(=O)[C@H](C)NC(=O)[C@@H]1CSSC[C@H](NC(=O)[C@H](CCCCN)NC(=O)CC[C@H](NC(=O)CCCCCCCCCCCCCCCCC(=O)O)C(=O)O)C(=O)N[C@@H](CC(N)=O)C(=O)N[C@@H]([C@@H](C)O)C(=O)N[C@@H](C)C(=O)N[C@@H]([C@@H](C)O)C(=O)N1)[C@@H](C)O)C(=O)N[C@@H](CC(C)C)C(=O)N1CCC[C@H]1C(=O)N1CCC[C@H]1C(=O)N[C@H](C(=O)N[C@@H](CC(N)=O)C(=O)N[C@H](C(=O)NCC(=O)N[C@@H](CO)C(=O)N[C@@H](CC(N)=O)C(=O)N[C@H](C(=O)N[C@@H](Cc1ccc(O)cc1)C(N)=O)[C@@H](C)O)C(C)C)[C@@H](C)O [Example 46, N-alpha-[(S)-4-Carboxy-4-(17-carboxyheptadecanoylamino)butyryl]-[Glu14,His17]-pramlintide] ({C18 diacid-γGlu}-KCNTATCATQRLAEFLHHSSNNFGPILPPTNVGSNTY-NH2; disulfide 2-7 (inferred); C-terminus assumed) | 54 | 27 | > 200 | > 200 | 169 (≈ 748 µg/mL) | 169 (≈ 748 µg/mL) | 169 (≈ 748 µg/mL) | 197 (≈ 872 µg/mL) | > 200 | > 200 | > 200 | > 200 | > 200 | – | – |
| CC[C@H](C)[C@H](NC(=O)[C@@H]1CCCN1C(=O)CNC(=O)[C@H](Cc1ccccc1)NC(=O)[C@H](CC(N)=O)NC(=O)[C@H](CC(N)=O)NC(=O)[C@H](CO)NC(=O)[C@H](CO)NC(=O)[C@H](Cc1c[nH]cn1)NC(=O)[C@H](CCCNC(=N)N)NC(=O)[C@H](CC(C)C)NC(=O)[C@H](Cc1ccccc1)NC(=O)[C@H](CCC(=O)O)NC(=O)[C@H](C)NC(=O)[C@H](CC(C)C)NC(=O)[C@H](CCCNC(=N)N)NC(=O)[C@H](CCC(N)=O)NC(=O)[C@@H](NC(=O)[C@H](C)NC(=O)[C@@H]1CSSC[C@H](NC(=O)[C@H](Cc2c[nH]cn2)NC(=O)CNC(=O)CC[C@H](NC(=O)CCCCCCCCCCCCCCCCCCC(=O)O)C(=O)O)C(=O)N[C@@H](CC(N)=O)C(=O)N[C@@H]([C@@H](C)O)C(=O)N[C@@H](C)C(=O)N[C@@H]([C@@H](C)O)C(=O)N1)[C@@H](C)O)C(=O)N[C@@H](CC(C)C)C(=O)N1CCC[C@H]1C(=O)N1CCC[C@H]1C(=O)N[C@H](C(=O)N[C@@H](CC(N)=O)C(=O)N[C@H](C(=O)NCC(=O)N[C@@H](CO)C(=O)N[C@@H](CC(N)=O)C(=O)N[C@H](C(=O)N1CCC[C@H]1C(N)=O)[C@@H](C)O)C(C)C)[C@@H](C)O [Example 89, N-alpha-[(S)-4-Carboxy-4-(19-carboxynonadecanoylamino)butyryl]-Gly-[His1,Glu14,Arg17,Pro37]-pramlintide] ({C20 diacid-γGlu}-GHCNTATCATQRLAEFLRHSSNNFGPILPPTNVGSNTP-NH2; disulfide 3-8 (inferred)) | 42 | 23 | > 200 | > 200 | > 200 | > 200 | > 200 | > 200 | > 200 | > 200 | > 200 | > 200 | > 200 | > 200 | > 200 |
| CC[C@H](C)[C@H](NC(=O)[C@@H]1CCCN1C(=O)CNC(=O)[C@H](Cc1ccccc1)NC(=O)[C@H](CC(N)=O)NC(=O)[C@H](CC(N)=O)NC(=O)[C@H](CO)NC(=O)[C@H](CO)NC(=O)[C@H](CCCNC(=N)N)NC(=O)[C@H](Cc1c[nH]cn1)NC(=O)[C@H](CC(C)C)NC(=O)[C@H](Cc1ccccc1)NC(=O)[C@H](CCC(=O)O)NC(=O)[C@H](C)NC(=O)[C@H](CC(C)C)NC(=O)[C@H](CCCNC(=N)N)NC(=O)[C@H](CCC(N)=O)NC(=O)[C@@H](NC(=O)[C@H](C)NC(=O)[C@@H]1CSSC[C@H](NC(=O)[C@H](CCCN)NC(=O)[C@@H](CCCNC(=N)N)NC(=O)[C@@H](CCCNC(=N)N)NC(=O)COCCOCCNC(=O)COCCOCCNC(=O)CC[C@H](NC(=O)CCCCCCCCCCCCCCCCC(=O)O)C(=O)O)C(=O)N[C@@H](CC(N)=O)C(=O)N[C@@H]([C@@H](C)O)C(=O)N[C@@H](C)C(=O)N[C@@H]([C@@H](C)O)C(=O)N1)[C@@H](C)O)C(=O)N[C@@H](CC(C)C)C(=O)N1CCC[C@H]1C(=O)N1CCC[C@H]1C(=O)N[C@H](C(=O)N[C@@H](CC(N)=O)C(=O)N[C@H](C(=O)NCC(=O)N[C@@H](CO)C(=O)N[C@@H](CC(N)=O)C(=O)N[C@H](C(=O)N[C@@H](Cc1ccc(O)cc1)C(N)=O)[C@@H](C)O)C(C)C)[C@@H](C)O [Example 120, N-alpha-[2-(2-{2-[2-(2-{2-[(S)-4-Carboxy-4-(17-carboxyheptadecanoylamino)butyrylamino]ethoxy}ethoxy)acetylamino]ethoxy}ethoxy)acetyl]-D-Arg-D-Arg-[Orn1,Glu14,His17,Arg18]-pramlintide] ({C18 diacid-γGlu-AEEA-AEEA}-[dR][dR][Orn]CNTATCATQRLAEFLHRSSNNFGPILPPTNVGSNTY-NH2; disulfide 4-9 (inferred); C-terminus assumed) | 53 | 2 | > 200 | > 200 | > 200 | – | > 200 | > 200 | 197 (≈ 992 µg/mL) | > 200 | > 200 | > 200 | > 200 | – | – |
| CC[C@H](C)[C@H](NC(=O)[C@@H]1CCCN1C(=O)CNC(=O)[C@H](Cc1ccccc1)NC(=O)[C@H](CC(N)=O)NC(=O)[C@H](CC(N)=O)NC(=O)[C@H](CO)NC(=O)[C@H](CO)NC(=O)[C@H](Cc1c[nH]cn1)NC(=O)[C@H](Cc1c[nH]cn1)NC(=O)[C@H](CC(C)C)NC(=O)[C@H](Cc1ccccc1)NC(=O)[C@H](CCC(=O)O)NC(=O)[C@H](C)NC(=O)[C@H](CC(C)C)NC(=O)[C@H](CCCNC(=N)N)NC(=O)[C@H](CCC(N)=O)NC(=O)[C@@H](NC(=O)[C@H](C)NC(=O)[C@@H]1CSSC[C@H](NC(=O)[C@H](CCCCN)NC(=O)[C@H](CCC(=O)O)NC(=O)CC[C@H](NC(=O)CCCCCCCCCCCCCCCCCCC(=O)O)C(=O)O)C(=O)N[C@@H](CC(N)=O)C(=O)N[C@@H]([C@@H](C)O)C(=O)N[C@@H](C)C(=O)N[C@@H]([C@@H](C)O)C(=O)N1)[C@@H](C)O)C(=O)N[C@@H](CC(C)C)C(=O)N1CCC[C@H]1C(=O)N1CCC[C@H]1C(=O)N[C@H](C(=O)N[C@@H](CC(N)=O)C(=O)N[C@H](C(=O)NCC(=O)N[C@@H](CO)C(=O)N[C@@H](CC(N)=O)C(=O)N[C@H](C(=O)N[C@@H](Cc1ccc(O)cc1)C(N)=O)[C@@H](C)O)C(C)C)[C@@H](C)O [Example 26, N-alpha-[(S)-4-Carboxy-4-(19-carboxynonadecanoylamino)butyryl]-Glu-[Glu14,His17]-pramlintide] ({C20 diacid-γGlu}-EKCNTATCATQRLAEFLHHSSNNFGPILPPTNVGSNTY-NH2; disulfide 3-8 (inferred); C-terminus assumed) | 46 | 39 | > 200 | > 200 | > 200 | – | > 200 | > 200 | > 200 | > 200 | > 200 | > 200 | > 200 | – | – |
